Experiments:
[1] = tested on: ZNF410; assay: RNA-seq in ZNF410 depleted differentiated HUDEP-2 cells; format: cell-based, human; settings: vs non-targeting sgRNA
Protocol: HUDEP-2 cells were cultured and differentiated as described (Kurita, et al. (2013) PLoS One 8:e59890). Briefly, StemSpan™ Serum-Free Expansion Medium (SFEM) supplemented with 50 ng/ml human stem cell factor (SCF), 10 μM dexamethasone, 1 μg/ml doxycycline, 3 IU/ml erythropoietin and 1% penicillin/streptomycin was utilized for routine cell maintenance. Cell density was kept at 0.1-1×10^6/ml. HUDEP-2 cells were differentiated for 6-7 days in IMDM supplemented with 50 ng/ml human SCF, 3 IU/ml erythropoietin, 2.5% fetal bovine serum, 250 μg/ml holo-transferrin, 10 ng/ml heparin, 10 μg/ml insulin, 1 μg/ml doxycycline and 1% penicillin/streptomycin.
Lentivirus was produced as described (Grevet, et al. (2018) Science 361:285-290). Briefly, 10-20 μg of expression vectors, 5-10 μg of pVSVG (pMD2.G) and 7.5-15 μg of psPAX2 package plasmids, and 80 μl of 1 mg/ml polyethylenimine (PEI) were mixed, incubated for 15-20 minutes, and added to HEK293T cells grown in 10 cm plates to above 90% confluence. Media were replaced 6-8 hours post transfection, virus was collected 24 hours and 48 hours post-transfection and pooled. For infection, virus-containing supernatant was mixed with the indicated cell lines with 8 μg/ml polybrene and 10 mM HEPES, and then spun at 2250 rpm for 1.5 hours at room temperature. Infected HUDEP-2 cells were selected for mCherry+ or GFP+ cell sorting at 48 hours post-infection.
(§1) Total RNAs were purified as described above. Sequencing libraries were then constructed using 100 ng of purified total RNA using the ScriptSeg™ Complete Kit (Illumina cat #BHMR1224) according to manufacturer's protocol. RNA was subjected to rRNA depletion using the Ribo-Zero™ removal reagents and fragmented. First strand cDNA was synthesized using a 5′ tagged random hexamer, and reversely transcribed, followed by annealing of a 5′ tagged, 3′-end blocked terminal-tagged oligo for second strand synthesis. The Di-tagged cDNA fragments were purified, barcoded, and PCR-amplified for 15 cycles.
(§2) The size and quality of each library were evaluated by Bioanalyzer 2100 (Agilent Technologies, Santa Clara, Calif.), and quantified using qPCR. Libraries were sequenced in paired-end mode on a NextSeq 500 instrument to generate 2×76 bp reads using Illumina-supplied kits. The sequence reads were processed using the ENCODE3 long RNA-seq pipeline (encodeproject.org/pipelines/ENCPL002LPE/). In brief, reads were mapped to the human genome (hg38 assembly) using STAR, followed by RSEM for gene quantifications.
(§3) The normalized FPKM (fragments per kilo base per million mapped reads) for each gene was averaged in 2 replicates and then filtered to keep those with average FPKM at least 10 in both HUDEP-2 cells and primary erythroblasts, resulting in ˜5000 high abundant genes each cell type for further analysis. Log2 fold-change was calculated from FPKM of sgRNA targeting ZNF410 compared to control sgRNA (non-targeting sgRNA) using the DESeq2 method, and top changed genes were selected with fold-change at least 1.5 and p-value<0.05. Commonly changed genes in both independent sgRNAs were considered to be significant. Scatter plots were generated using ggplot2 in RStudio for all expressed genes (FPKM>5).
(§4) ZNF410 functions as a transcriptional activator (Benanti, et al. (2002) Mol. Cell Biol., 22:7385-7397). To understand how ZNF410 regulates the transcription of γ-globin genes, RNA-seq experiments were performed in ZNF410 depleted differentiated HUDEP-2 cells and primary human erythroblasts.

[2] = tested on: ZNF410; assay: RNA-seq in ZNF410 depleted primary human erythroblasts (CD34+ HSPC derived); format: cell-based; settings: primary CD34+ cells (erythroblasts), vs non-targeting sgRNA
Protocol: Primary human CD34+ HSPCs from mobilized peripheral blood were purchased from the Fred Hutchinson Cancer Research Center. Human CD34+ HSPCs were differentiated using a three-phase culture system as described (Grevet, et al. (2018) Science 361:285-290). Briefly, IMDM supplemented with 3 IU/ml erythropoietin, 2.5% human male AB serum, 10 ng/ml heparin, and 10 μg/ml insulin was used as base medium. For phase I medium, 100 ng/ml human SCF, 5 ng/ml IL-3, and 250 μg/ml holo-transferrin were supplemented. For phase II medium, 100 ng/ml human SCF and 250 μg/ml holo-transferrin were added. For phase III medium, 1.25 mg/ml holo-transferrin was supplemented.
Commercial sgRNAs were purchased from IDT (Coralville, Iowa) or Synthego (Menlo Park, Calif.). To assemble the RNP complexes, 100 pmol sgRNA and 50 pmol SpCas9 protein (from IDT) were incubated at room temperature for 15 minutes. CD34+ HSPCs (50k-100k) at Day 3-4 of phase I culture were electroporated using P3 Primary Cell 4D Nucleofector™ X Kit (from Lonza) with the program DZ100 (Bak, et al. (2018) Nat. Protoc., 13:358-376).
as §1, §2, §3, §4

Substance | log2(sgRNA/NT) AC092490.1 transcript [1] | log2(sgRNA/NT) AC104389.5 transcript [1] | log2(sgRNA/NT) AK1 transcript [1] | log2(sgRNA/NT) CD63 transcript [1] | log2(sgRNA/NT) CHD4 transcript [1] | log2(sgRNA/NT) CKB transcript [1] | log2(sgRNA/NT) FOS transcript [1] | log2(sgRNA/NT) H1F0 transcript [1] | log2(sgRNA/NT) HBG1/2 transcript [1] | log2(sgRNA/NT) PRG2 transcript [1] | log2(sgRNA/NT) S100A10 transcript [1] | log2(sgRNA/NT) SCARNA3 transcript [1] | log2(sgRNA/NT) TUBA1A transcript [1] | log2(sgRNA/NT) AC092490.1 transcript [2] | log2(sgRNA/NT) ACSL6 transcript [2] | log2(sgRNA/NT) CBX6 transcript [2] | log2(sgRNA/NT) CHD4 transcript [2] | log2(sgRNA/NT) HBG1/2 transcript [2] | log2(sgRNA/NT) HSPB1 transcript [2] | log2(sgRNA/NT) PAFAH1B3 transcript [2] | also measured
ZNF410 sgRNA#2: sgRNA targeting the DNA-binding domain of ZNF410, CTCATCAGTGCCAAGTCTGT (SEQ ID NO: 5) (listed as DNA, chemistry not given here) | −1.50 | 4.01 | 1.83 | 1.75 | −1.23 | 2.24 | −1.88 | 2.13 | 4.28 | 2.17 | −1.59 | −1.30 | −1.07 | −1.47 | −1.47 | −2.01 | −1.08 | 1.75 | 2.15 | 1.40 | log2(sgRNA/NT) PLA2G6 transcript [1]: −1.01; log2(sgRNA/NT) RNU5B-1 transcript [1]: 3.60; log2(sgRNA/NT) RNU5E-1 transcript [1]: 1.82; log2(sgRNA/NT) RNU6-11P transcript [1]: −1.11; log2(sgRNA/NT) SCARNA18 transcript [1]: −1.20; log2(sgRNA/NT) SLC2A3P1 transcript [1]: −1.49; log2(sgRNA/NT) SNORD97 transcript [1]: 2.29; log2(sgRNA/NT) AC104389.5 transcript [2]: 1.43; log2(sgRNA/NT) AC130456.3 transcript [2]: −2.03; log2(sgRNA/NT) CDKN1A transcript [2]: 1.38; log2(sgRNA/NT) IFI27 transcript [2]: 1.78; log2(sgRNA/NT) KDM7A transcript [2]: −1.32; log2(sgRNA/NT) PKN1 transcript [2]: 1.43; log2(sgRNA/NT) PRDX5 transcript [2]: −1.09; log2(sgRNA/NT) RN7SL471P transcript [2]: 1.60; log2(sgRNA/NT) SELENOW transcript [2]: 1.67; log2(sgRNA/NT) SMOX transcript [2]: −1.24; log2(sgRNA/NT) STUB1 transcript [2]: 1.40; log2(sgRNA/NT) TMCC2 transcript [2]: −1.69; log2(sgRNA/NT) ZNF410 transcript [2]: −1.24
ZNF410 sgRNA#1: sgRNA targeting the DNA-binding domain of ZNF410, GAACCACCAGATGTTTTCGG (SEQ ID NO: 4) (listed as DNA, chemistry not given here) | −1.45 | 3.95 | 1.99 | 1.90 | −0.99 | 2.44 | −1.32 | 2.41 | 4.26 | 2.09 | −1.60 | −0.89 | −1.06 | −1.50 | −1.67 | −1.56 | −0.93 | 1.47 | 2.01 | 1.35 | log2(sgRNA/NT) ATF5 transcript [1]: 1.65; log2(sgRNA/NT) GLIPR2 transcript [1]: −1.14; log2(sgRNA/NT) MIF transcript [1]: 1.92; log2(sgRNA/NT) PPP4R1 transcript [1]: −0.95; log2(sgRNA/NT) RF00019 transcript [1]: −2.43; log2(sgRNA/NT) TMCC2 transcript [1]: −1.18; log2(sgRNA/NT) TMSB10 transcript [1]: 1.79; log2(sgRNA/NT) COA4 transcript [2]: 1.30; log2(sgRNA/NT) DYNLT1 transcript [2]: 1.27; log2(sgRNA/NT) GPCPD1 transcript [2]: −0.93; log2(sgRNA/NT) ISOC2 transcript [2]: 1.34; log2(sgRNA/NT) PKN1 transcript [2]: 1.32; log2(sgRNA/NT) PRDX5 transcript [2]: −1.00; log2(sgRNA/NT) RPS19BP1 transcript [2]: 1.42; log2(sgRNA/NT) SELENOW transcript [2]: 1.55; log2(sgRNA/NT) SMOX transcript [2]: −1.45; log2(sgRNA/NT) SPC25 transcript [2]: −0.93; log2(sgRNA/NT) STUB1 transcript [2]: 1.46; log2(sgRNA/NT) TMCC2 transcript [2]: −2.01; log2(sgRNA/NT) ZNF410 transcript [2]: −1.49

Reference: US20230272390A1, “COMPOSITIONS AND METHODS FOR HEMOGLOBIN PRODUCTION” (THE CHILDREN'S HOSPITAL OF PHILADELPHIA, priority 2020, published 2023)
